Results reported in US20240382475A1, “Quinazoline Derivative, Or Preparation Method Therefor And Use Thereof” (Zhejiang Hisun Pharmaceutical Co., Ltd., priority 2021, published 2024).

Experiments:
[1] = biological target: T1, KRAS-G12C/SOS1 (Homo sapiens, UniProt Q07889); test: Blocking the binding of KRAS G12C protein to SOS1 (Cisbio KRAS-G12C/SOS1 binding assay kit, TR-FRET); conditions: Tag1-SOS1 and Tag2-KRAS-G12C, TR-FRET 665/620; read-out: IC50 (nM) Inhibition of KRAS-G12C/SOS1 binding
T1 construct: purchased Cisbio 63ADK000CB16PEG
T1 sequence (Q07889 1-1333): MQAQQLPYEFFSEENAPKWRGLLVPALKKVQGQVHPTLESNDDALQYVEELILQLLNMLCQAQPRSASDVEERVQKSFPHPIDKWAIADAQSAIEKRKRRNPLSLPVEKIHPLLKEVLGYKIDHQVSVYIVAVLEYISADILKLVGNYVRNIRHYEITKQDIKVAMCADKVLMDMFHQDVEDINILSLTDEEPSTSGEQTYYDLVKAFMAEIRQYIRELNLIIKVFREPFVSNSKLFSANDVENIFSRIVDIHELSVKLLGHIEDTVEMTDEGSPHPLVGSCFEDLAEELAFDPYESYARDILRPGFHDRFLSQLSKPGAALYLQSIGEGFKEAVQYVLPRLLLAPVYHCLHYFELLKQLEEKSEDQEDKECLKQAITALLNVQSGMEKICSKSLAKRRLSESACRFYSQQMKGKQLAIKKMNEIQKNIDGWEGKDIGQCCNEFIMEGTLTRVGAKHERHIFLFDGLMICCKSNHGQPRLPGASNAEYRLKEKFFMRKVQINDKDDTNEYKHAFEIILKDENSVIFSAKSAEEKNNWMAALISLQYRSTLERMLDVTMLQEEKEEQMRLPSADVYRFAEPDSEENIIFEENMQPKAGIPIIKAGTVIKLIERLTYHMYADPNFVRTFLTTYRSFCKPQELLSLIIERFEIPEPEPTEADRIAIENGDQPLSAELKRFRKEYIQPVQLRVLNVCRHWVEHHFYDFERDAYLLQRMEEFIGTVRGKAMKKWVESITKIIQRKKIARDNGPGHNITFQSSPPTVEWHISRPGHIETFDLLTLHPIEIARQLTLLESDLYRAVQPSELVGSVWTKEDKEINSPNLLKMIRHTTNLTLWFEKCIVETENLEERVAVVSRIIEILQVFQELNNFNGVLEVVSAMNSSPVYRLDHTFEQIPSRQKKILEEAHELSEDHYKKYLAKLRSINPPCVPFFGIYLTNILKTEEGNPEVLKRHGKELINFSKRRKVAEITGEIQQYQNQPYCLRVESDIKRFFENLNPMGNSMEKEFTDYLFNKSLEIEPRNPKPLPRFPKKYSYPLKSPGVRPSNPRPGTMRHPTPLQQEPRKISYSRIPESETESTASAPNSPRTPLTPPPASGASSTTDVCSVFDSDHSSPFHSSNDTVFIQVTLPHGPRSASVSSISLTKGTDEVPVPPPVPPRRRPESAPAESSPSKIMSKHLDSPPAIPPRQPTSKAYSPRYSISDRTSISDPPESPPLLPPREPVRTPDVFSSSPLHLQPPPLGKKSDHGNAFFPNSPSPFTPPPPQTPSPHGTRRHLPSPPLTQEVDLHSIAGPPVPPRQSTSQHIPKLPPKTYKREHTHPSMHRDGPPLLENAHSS
Text: The following method was used to determine the abilities of compounds of the invention to block the interaction of SOS1 with the KRAS G12C protein in vitro. KRAS-G12C/SOS1 BINDING ASSAY KITS (Art. No. 63ADK000CB16PEG) from Cisbio was used in this method. Please refer to the kit instruction for detailed experimental operations.
The experimental process can be briefly described as follows: diluent buffer (Art. No. 62DLBDDF) was used to prepare a working solution with a concentration of 5× for Tag1-SOS1 and Tag2-KRAS-G12C protein. The test compounds were dissolved in DMSO to prepare storage solutions of 10 mM, and then the solutions were diluted with dilution buffer for later use. First, 2 μL of the test compound (the final concentrations of the reaction system were 10000 nM-0.1 nM) was added to the well, then 4 μL of Tag1-SOS1 5× working solution and 4 μL of Tag2-KRAS-G12C 5× working solution were added, and the above mixture was centrifuged, mixed, and stood for 15 minutes; then 10 μL of premixed anti-Tag1-Tb^3+ and anti-Tag2-XL665 were added, and the mixture was incubated at room temperature for 2 hours; finally, a microplate reader was used in […] mode to measure the fluorescence intensity of each well emitting wavelengths of 620 nm and […] under the excitation wavelength of 304 nm, and the fluorescence intensity ratio 665/620 in each well was calculated. Compared with the fluorescence intensity ratio of a control group (0.1% DMSO), the percentage inhibition rates of the test compounds at each concentration were calculated, and the IC50 values of the compounds were obtained by performing nonlinear regression analysis with logarithmic values of the compound concentration-inhibition rate by GraphPad Prism 5 software, which was shown in Table 1.

[2] = test system: OCI-AML5 cells; test: Inhibition of OCI-AML5 cell proliferation (CellTiter-Glo); type: cell-based; conditions: Homo sapiens, OCI-AML-5; OCI-AML5 cells (SOS1 N233Y mutation), 120 hours
Protocol: The following method was used to determine the influence of the compounds of the present invention on OCI-AML5 cells proliferation. OCI-AML5 cells (containing SOS1 N233Y mutation) were purchased from Nanjing Kebai Biotechnology Co., Ltd. and cultured in MEMα medium containing 10% fetal bovine serum, 100 U penicillin, and 100 μg/mL streptomycin. The activities of the cells were determined by CellTiter-Glo® Luminescent Cell Viability Assay Kit (Promega, Art. No. G7573).
The experimental method was operated according to the steps in the kit instruction, which were briefly described as follows: the test compounds were first dissolved in DMSO to prepare storage solutions of 10 mM, and then diluted with culture mediums to prepare test samples. The final concentrations of the compounds were 10000 nM to 0.15 nM. Cells in logarithmic phase were inoculated in a 96-well cell culture plate with 1,000 cells per well, after cultured overnight in 5% CO2 incubator at 37° C., the test compounds were added to the incubator to continue the culture for 120 hours. After the culture was completed, 50 μL of CellTiter-Glo detection solution was added to each well, shaken for 5 minutes and then stood for 10 minutes. Then, a Luminescence mode was used to read the luminescence values of each well of the samples on a microplate reader.

[3] = test system: human lung cancer NCI-H2122 subcutaneous xenotransplanted tumor; test: Pharmacodynamic evaluation in nude mouse subcutaneous xenotransplanted model of human lung cancer NCI-H2122; type: in vivo, Balb/c nude mouse; conditions: 30 mg/kg each agent
Protocol: The anti-tumor effect and safety of compound 11 of the present invention were evaluated in a Balb/c nude mouse animal model of subcutaneous xenotransplanted NCI-H2122.
BALB/c; nude mice, female, 6-7 weeks old (the age of mice when tumor cells were inoculated), purchased from Jiangsu Jicui Yaokang Biotechnology Co., Ltd.
The solvent control group was given DMSO:castor oil:5% glucose injection=20:10:70 (v/v/v).
(§1) AMG-510: an appropriate amount of AMG-510 was weighed, and an appropriate amount of DMSO:castor oil:5% glucose injection=20:10:70 (v/v/v) was added. After the above mixture was fully dissolved, an appropriate amount of 1 M hydrochloric acid was added, vortexed and mixed to prepare a solution with a concentration of 3 mg/mL.
as §1, with “Compound 11:” for “AMG-510:”, “compound 11” for “AMG-510”
H2122 cells were cultured in 1640 culture medium containing 10% fetal bovine serum and 1% penicillin-streptomycin-amphotericin B solution. H2122 cells in the exponential growth phase were collected and resuspended in matrigel solution (matrigel:PBS=1:1 (V/V)) to a suitable concentration for subcutaneous tumor inoculation in nude mice.
Female Balb/c nude mice were subcutaneously inoculated with about 3.0×10^6H2122 cells on the right sides of their backs. When the average volume of the tumors reaches about 150-200 mm^3, the mice were randomly divided according to the tumor sizes with 6 mice in each group.
• Group 1 (G1), solvent control group; • Group 2 (G2), AMG-510 was given by intragastric administration at a dose of 30 mg/kg; • Group 3 (G3), Example 11 was given by intragastric administration at a dose of 30 mg/kg; • Group 4 (G4), AMG-510 and Example 11 were administered in combination, and the dosages were respectively: AMG-510, 30 mg/kg (QD); Example 11, 30 mg/kg (QD).
After tumor inoculation, routine monitoring included the effects of tumor growth and treatment on the normal behaviors of the animals, specifically the mobility, feeding and drinking, weight gain or loss, eyes, coat and other abnormalities of the experimental animals.
Calculation formulae for a relative tumor volume (RTV), a relative tumor proliferation rate (T/C) and a tumor inhibition percentage (IR) were as follows: • (1) TV (tumor volume)=½×a×b^2, wherein a and b represent the length and width of the tumor respectively; • (2) RTV (relative tumor volume)=Vt/Vo, wherein Vo is the tumor volume measured at the time of administration when grouping (i.e. do), and Vt is the tumor volume at each measurement; • (3) relative tumor proliferation rate T/C (%)=TRTV/CRTV×100%, wherein TRTV is the RTV of the treatment group and CRTV is the RTV of the control group; • (4) Tumor growth inhibition rate TGI(%)=(1−T/C)×100%; wherein, T and C are the relative tumor volumes of the treatment group and the control group at a specific time point. • (5) IR (%)=(1−TWt/TWc)×100%, wherein, TWt is the tumor weight of the treatment group and TWc is the tumor weight of the control group. The anti-tumor evaluation criteria are (cytotoxic drugs): T/C(%)>40% is invalid; T/C(%)≤40%, and after statistical processing, P<0.05 is effective.

`COc1cc2nc(C)nc(N[C@H](C)c3cccc(C#N)c3C)c2cc1N1CCC(N2CCCC2=O)CC1` [Compound 21, (R)-3-(1-((7-methoxy-2-methyl-6-(4-(2-oxopyrrolidin-1-yl)piperidin-1-yl)quinazolin-4-yl)amino)ethyl)-2-methylbenzonitrile] showed an IC50 [1] of 63.2 nM.

`COc1cc2nc(C)nc(N[C@H](C)c3cccc(C#N)c3C)c2cc1N1CCN2C(=O)CCC2C1` (stereo partly drawn) [Compound 3, 3-((1R)-1-((7-methoxy-2-methyl-6-(6-oxohexahydropyrrolo[1,2-a]pyrazin-2(1H)-yl)quinazolin-4-yl)amino)ethyl)-2-methylbenzonitrile] gave an IC50 [2] of 42.9 nM.

Work on `COc1cc2nc(C)nc(N[C@H](C)c3cccc(C#N)c3C)c2cc1N1CCC(N2CCN(C)CC2)CC1` [Compound 15, (R)-3-(1-((7-methoxy-2-methyl-6-(4-(4-methylpiperazin-1-yl)piperidin-1-yl)quinazolin-4-yl)amino)ethyl)-2-methylbenzonitrile] yielded an IC50 [1] of 31.7 nM and an IC50 [2] of 3.7 nM.

With `COc1cc2nc(C)nc(N[C@H](C)c3cccc(C#N)c3C)c2cc1N1CCN(C)CC1` [Compound 10, (R)-3-(1-((7-methoxy-2-methyl-6-(4-methylpiperazin-1-yl)quinazolin-4-yl)amino)ethyl)-2-methylbenzonitrile] the IC50 [1] was 36.7 nM and the IC50 [2] was 16.8 nM.

Molecule `COc1cc2nc(C)nc(N[C@H](C)c3cccc(C#N)c3C)c2cc1N1CC2COCC2C1` (stereo partly drawn) [Compound 9, 3-((1R)-1-((7-methoxy-2-methyl-6-(tetrahydro-1H-furo[3,4-c]pyrrol-5(3H)-yl)quinazolin-4-yl)amino)ethyl)-2-methylbenzonitrile] has an IC50 [1] of 53.7 nM and an IC50 [2] of 25 nM.

Work on `COc1cc2nc(C)nc(N[C@H](C)c3cccc(C#N)c3C)c2cc1N1CCC(N2CCN(S(C)(=O)=O)CC2)CC1` [Compound 23, (R)-3-(1-((7-methoxy-2-methyl-6-(4-(4-(methylsulfonyl)piperazin-1-yl)piperidin-1-yl)quinazolin-4-yl)amino)ethyl)-2-methylbenzonitrile] yielded an IC50 [2] of 41.1 nM.

Molecule `COc1cc2nc(C)nc(N[C@H](C)c3cccc(C#N)c3C)c2cc1N1CCC2(CC1)CN(S(C)(=O)=O)C2` [Compound 16, (R)-3-(1-((7-methoxy-2-methyl-6-(2-(methylsulfonyl)-2,7-diazaspiro[3.5]nonan-7-yl)quinazolin-4-yl)amino)ethyl)-2-methylbenzonitrile] has an IC50 [1] of 54.3 nM.

For `C=CC(=O)N1CCN(c2nc(=O)n(-c3c(C)ccnc3C(C)C)c3nc(-c4c(O)cccc4F)c(F)cc23)[C@@H](C)C1` [AMG-510, reference compound], the “Relative tumor volume (x ± S)” value ([3]; 16 days after administration) was 2.90 ± 0.26, the TGI % ([3]; 16 days after administration) was 43.0% and the “Tumor volume (x ± S)” value ([3]; Day 0 after administration, intragastric) was 199 ± 21 mm^3. For the same molecule, the “Tumor volume (x ± S)” value ([3]; Day 3 after administration, intragastric) was 263 ± 17 mm^3, the “Tumor volume (x ± S)” value ([3]; Day 7 after administration, intragastric) was 343 ± 29 mm^3 and the “Tumor volume (x ± S)” value ([3]; Day 10 after administration, intragastric) was 406 ± 38 mm^3. For the same molecule, the “Tumor volume (x ± S)” value ([3]; Day 14 after administration, intragastric) was 538 ± 47 mm^3, the “Tumor volume (x ± S)” value ([3]; Day 16 after administration, intragastric) was 563 ± 58 mm^3 and the “Tumor volume (x ± S)” value ([3]; Table 11, 16 days after administration, in mm³) was 563 ± 58. For the same molecule, the “Inhibition rate of tumor weight (%)” value ([3]; end of the experiment) was 44.3% and the “Tumor weight (g) (x ± S)” value ([3]; end of the experiment) was 0.4203 ± 0.0447 g.
